In US20010005714A1, “AMPHIPATHIC MOLECULES AS CHOLESTEROL AND OTHER LIPID UPTAKE INHIBITORS” (priority 1996, published 2001):

Key:
normal human BBMV = test: [14C]Cholesterol uptake from egg PC vesicles by normal human duodenal BBMV; format: biochemical; settings: human duodenal BBMV
Experimental: Biopsy samples from human duodenum, 20 to 30 mg of wet tissue each, were suspended in 200 μl buffer (12 mM Tris HCl pH 7.2, 300 mM mannitol, 5 mM EGTA, 1 mM phenylmethylsulfonyl fluoride), frozen in liquid nitrogen and stored at −80° C. prior to use. BBMV were prepared by Mg^+2 precipitation (Hauser et al, Biochim. Biophys. Acta 602 567-577 (1980)) as described in detail by Booth et al (Lancet 1 1066-1069 (1985)). Proteinase K treatment of the BBMV was carried out according to Thurnhofer and Hauser (Biochim. Biophys. Acta 1024 249-262 (1990)). […] Small unilamellar phesrholipid vesicles were prepared by tip sonication (Schulthess, Biochemistry 33 4500-4508 (1994)).
(I) Egg PC small unilamellar vesicles containing […] (^14C] cholesterol and BBMV both dispersed in 10 mM Tris-HCl pH 7.2, 0.15 M NaCl, 5 mM EDTA were incubated at room temperature. After timed intervals phospholipid vesicles and BBMV were separated by centrifugation at 115000 g for 2 min in a Beckman airfuge. The radioactivities present in pellet and supernatant were determined by counting aliquots in a Beckman LS 7500 liquid scintillatior counter. Fusion of egg PC small unilamellar vesicles and BBMV as a possible mechanism of cholesterol uptake was ruled out as discussed in detail in previous studies (Thurnhofer and Hauser, Biochemistry 29 2142-2148 (1990); Compassi, Biochemistry 34 16473-16482 (1995) and Schulthess, J. Lipid. Res. 37 2405-2419 (1996)).
The experimental data were computer-fitted using the following equation valid for single-exponential exchange reactions: X=X∞+[XO−X∞]e^-k1^[(a+b)/a]t, where XO, X and X∞represent the fractions of the labelled lipid in the donor at times 0, t and at equilibrium, respectively. K1 is the pseudo-first-order rate constant of the reaction and a and b are the lipid pools of acceptor and donor, respectively (McKay, Nature 142 997-998 (1938) and Mutsch et al, Biochemistry 25 2134-2140 (1986).
Kinetic measurements were also carried out in the presence of inhibitors; synthetic peptides or apolipoproteins were added to the […] of donor and acceptor vesicles. Cholesterol uptake by native and proteinase K treated BBMV was determined in the presence of increasing concentrations of Ac-18A-NH2, the difference between cholesterol uptake by native and proteinase K treated BBMV is referred as protein-mediated cholesterol uptake in FIG. 6. The IC50 values were determined according to Methods Enzymol. 37 3-22 (1975).

BBMVs = test: Inhibition of cholesteryl oleate uptake by BBMVs by peptides of varying lengths (Example 8); format: biochemical; settings: for Inhibition of Cholesteryloleate Uptake In. %: donor 0.05 mg total lipid/ml, acceptor 5 mg protein/ml, 23° C.
Experimental: going from one peptide to the other (top→bottom) 3 amino acids were removed from the N-terminus. The inhibitory effect of the four peptides listed above were compared at 120 μg peptide/ml. The lipid uptake by BBMVs was measured in the presence of 120 μg peptide/ml each as described below.
Donor and acceptor particles dispersed in Tris/NaCl buffer were centrifuged in a Beckman airfuge at 115000 g is for 2 min at 4° C. The dispersion of the acceptor yielded a pellet which was resuspended in Tris/NaCl buffer. Varying amounts of inhibitor dissolved in the same buffer were added to the acceptor dispersion and at time zero the dispersiorn of acceptor with or without inhibitor was mixed with the top 80% of the supernatant obtained by centrifugation of the donor dispersion. The final concentration of the donor was 0.05 mg total lipid/ml and that of the acceptor was 5 mg protein/ml. The resulting dispersion was incubated at 23° C. and after timed intervals the sterol uptake was stopped by dilution of the incubation medium with 2 volumes of Tris/NaCl buffer. BBMV were separated from the donor by centrifugation in the Beckman airfuge at 115000 g for 2 min at 4° C. The radioactivities in the supernatant containing the donor and in the pellet containing the BBMV (acceptor) were determined in a Beckman LS 7500 scintillation counter.

[1] = system: brush border membrane vesicles (BBMV); test: IC50 of cholesteryl oleate uptake at the brush border membrane (Example 6); format: biochemical, rabbit; settings: donor 0.1 mg total lipid/ml, acceptor 2 mg protein/ml; 20 min at 25° C.
Experimental: An appropriate amount of inhibitor dissolved in 84.5 μl buffer (0.05 M Tris pH 7.4, 0.15 M NaCl) is mixed in an Eppendorf tube at time zero with 5 μl of a dispersion of donor and 10.5 μl of a dispersion of acceptor (i.e. brush border membrane vesicles (BBMV)) in the same buffer. The final concentration of the donor vesicles was 0.1 mg total lipid/ml, that of the acceptor was 2 mg protein/ml. The resulting mixture was incubated for 20 min at 25° C., and the reaction was stopped by adding 60 μl of the incubation medium to 120 μl ice-cold bufferin an airfuge tube. The diluted dispersion was immediately centrifuiaed in the airfuge at […] for 2 min. at 4° C. to separate donor vesicles from BBMV. Two 60 μl aliquots of the donor (=supernatant) were counted in a Beckman LS-7500 liquid scintillating counter to determine the radioactivity remaining in tbe donor.
Small unilamellar egg phosphatidycholine (PC) vesicles containing 1 mol % of cholesterol oleate and a trace amount of ^3H-cholesterol oleyl ether were made by dissolving the appropriate amounts of the lipids in CHCl3/CH3OH, (2:1, by vol.), taking the solution to dryness on a rotary evaporator and drying the residue in vacuo. The dried lipid film was dispersed in the appropriate volume of buffer by hand-shaking. The lipid dispersion was subjected to tip sonication as described in Brunner et al, J. Biol. Chem. 253 7538-7546 (1978). The resulting donor dispersion in buffer was centrifuged in the airfuge at 100000 g for 2 min at […]. Only the top 80% of the donor dispersion after centrifugation was used in the lipid uptake experiment.
BBMV were prepared from frozen rabbit small intestine according to Hauser et al (Biochim. Biophys. Acta 602 567-577 (1980)). Prior to use in the uptake experiment determining IC50 values the BBMV were washed to remove any free protein liberated from the BBM. To this end the BBMV dispersion was diluted with buffer 1:1 in an airfuge tube, and the diluted dispersion was centrifuged in the airfuga at 100000 g for 2 min at […]. The supernatant was is carefully decanted, the pellet was resuspended in buffer to the original volume of the BBMV dispersion, and the dispersion was homogenized. […]

rabbit BBMV = test: Dose response of cholesteryl oleate uptake from egg PC SUVs by rabbit BBMV (FIG. 4B); format: biochemical; settings: donor 0.05 mg/ml total lipid, acceptor 1.7 mg protein/ml, 20 min at 25° C., curve fits of FIG. 4B
Experimental: Small unilamellar vesicles of egg phosphatidylcholine containing 1 mol % cholesteryl oleate and a trace amount of (1,2-^3H2 (N)]-cholesteryl oleyl ether (37 Ci/mmol, from Amersham, UK) as the donor were made as described in Example 1 and BBMVs as the acceptor were prepared from rabbit small intestine (see Example 1). Donor and acceptor both dispersed in Tris/NaCl buffer (0.05 M Tris HCl pH 7.4, 0.15 M NaCl, 0.02% NaN3) and a solution of human apo A-1 or sheep HDL in the same buffer were mixed at time zero (total volume: 0.1 ml) so that the final concentrations of donor and acceptor were 0.05 mg/ml total lipid and 1.7 mg protein/ml, respectively. After incubation of the suspension of donor and acceptor in the presence of inhibitor for 20 min. at 25° C., the reaction was stopped by dilution with 2 vol. of Tris/NaCl buffer. Donor and acceptor were separated by centrifugation in the airfuge at 115,000 g for 2 min. at […]., and the radioactivities in the supernatant containing donor vesicles and in the pellet containing BBMVs were determined in a BECKMAN™ LS 7500 scintillation counter. […]
Experimental conditions were as described for FIG. 4A. The cholesterol absorption activity of BBMVs measured in the absence of inhibition was taken as 100% and the loss in activity observed in the presence of inhibitor is expressed as %. […]

[2] = taken from Chapman (1986), for comparison; cited from earlier work

Row | IC50 [1] | IC50 (μg/mL) of cholesteryl oleate uptake at the brush border membrane [1] | Molecule | also measured
1 | – | – | Ac-Asp-Trp-Leu-Alα—Lys-Asp-Tyr-Phe-Lys-Lys-Alα —Leu-Val-Glu-Glu-Phe-Alα—Lys-NH2 [scrambled Ac-18A-NH2, reference compound] | inhibition of protein-mediated cholesterol uptake (in words) (normal human BBMV): inactive
2 | – | – | Ac-Lys-Alα-Phe-Tyr-Asp-Lys-Val-Alα-Glu-Lys-Leu-Lys-Glu-Alα α-Phe-NH2 (Ac-KAFYDKVAEKLKEAF-NH2) [Ac-15A-NH2] | inhibitory effect on cholesteryl oleate uptake (in words, footnote) (BBMVs; 120 μg peptide/ml): Useful inhibitory effect is seen with Peptides Nos. 1 and 2.; Inhibition of Cholesteryloleate Uptake In. % (BBMVs; 120 μg peptide/ml): 85%; cholesteryl oleate uptake inhibition activity relative to Ac-18A-NH2 (BBMVs; brush border membrane vesicle model): 85%
3 | 1.8 ± 0.4 µM | 12 ± 2 µg/mL | Apo C-1: natural (human) apoprotein C-I (TPDVSSALDKLKEFGNTLEDKARELISRIKQSELSAKMREWFSETFQKVKEKLKIDS; Apolipoprotein C-I; UniProt P02654 27-83, looked up) | –
4 | 0.6 ± 0.1 µM | 4.8 ± 0.8 µg/mL | Apo C-31: natural (human) apoprotein C-III1 | –
5 | 0.5 ± 0.2 µM | 4.2 ± 0.2 µg/mL | Apo C-32: natural (human) apoprotein C-III2 | –
6 | 2.9 ± 0.2 µM | 95 ± 7 µg/mL | Apo E: natural (human) apoprotein E | –
7 | – | – | CH3CO—VAEKLKEAF—NH2 (Ac-VAEKLKEAF-NH2) [Ac-9A-NH2] | Inhibition of Cholesteryloleate Uptake In. % (BBMVs; 120 μg peptide/ml): 0%
8 | – | – | CH3CO—YDKVAEKLKEAF—NH2 (Ac-YDKVAEKLKEAF-NH2) [Ac-12A-NH2] | Inhibition of Cholesteryloleate Uptake In. % (BBMVs; 120 μg peptide/ml): 20%
9 | 3.8 ± 0.3 µM | 66 ± 5 µg/mL | apo A-II: human apolipoprotein A-2 | IC-50 (rabbit BBMV): 66 µg/mL
10 | 0.7 ± 0.1 µM | 32 ± 4 µg/mL | Apo A-4: natural (human) apoprotein A-IV (protein, UniProt P06727 21-396, looked up) Apolipoprotein A-IV: EVSADQVATVMWDYFSQLSNNAKEAVEHLQKSELTQQLNALFQDKLGEVNTYAGDLQKKLVPFATELHERLAKDSEKLKEEIGKELEELRARLLPHANEVSQKIGDNLRELQQRLEPYADQLRTQVSTQAEQLRRQLTPYAQRMERVLRENADSLQASLRPHADELKAKIDQNVEELKGRLTPYADEFKVKIDQTVEELRRSLAPYAQDTQEKLNHQLEGLTFQMKKNAEELKARISASAEELRQRLAPLAEDVRGNLRGNTEGLQKSLAELGGHLDQQVEEFRRRVEPYGENFNKALVQQMEQLRQKLGPHAGDVEGHLSFLEKDLRDKVNSFFSTFKEKESQDKTLSLPELEQQQEQQQEQQQEQVQMLAPLES | –
11 | – | – | rabbit apo A-1: rabbit apolipoprotein A-1, literature values for comparison (protein, UniProt P09809 25-266, looked up, Apolipoprotein A-I, rabbit apolipoprotein A-1, literature values for comparison) Apolipoprotein A-I: DEPRSSWDKIKDFATVYVDTVKDSGREYVAQFEASAFGKQLNLKLLDNWDSLSSTVSKLQEQLGPVTQEFWDNLEKETEGLREEMNKDLQEVRQKVQPYLDEFQKKWQEEVERYRQKVEPLGAELRESARQKLTELQEKLSPLAEELRDSARTHVDTLRTKLAPYSNELQQRLAARLESIKEGGGASLAEYQAKAREHLSVLSEKARPALEDLRQGLLPVLESFKASVQNVLDEATKKLNTQ | isoelectric point [2]: 5.50
12 | 2.1 ± 0.1 µM | 19 ± 1 µg/mL | Apo C-2: natural (human) apoprotein C-II (protein, UniProt P02655 29-101, looked up, Apolipoprotein C-II) Apolipoprotein C-II: DEMPSPTFLTQVKESLSSYWESAKTAAQNLYEKTYLPAVDEKLRDLYSKSTAAMSTYTGIFTDQVLSVLKGEE | –
